The compounds below were run against T1, OATP1B1 (Homo sapiens, UniProt Q9Y6L6) (assay: OATP1B1-mediated pyranine uptake in A431 cells overexpressing OATP1B1). Details: not given.
T1 construct: expressed in transfected cells; host or cells: A431
T1 sequence (Q9Y6L6 1-691): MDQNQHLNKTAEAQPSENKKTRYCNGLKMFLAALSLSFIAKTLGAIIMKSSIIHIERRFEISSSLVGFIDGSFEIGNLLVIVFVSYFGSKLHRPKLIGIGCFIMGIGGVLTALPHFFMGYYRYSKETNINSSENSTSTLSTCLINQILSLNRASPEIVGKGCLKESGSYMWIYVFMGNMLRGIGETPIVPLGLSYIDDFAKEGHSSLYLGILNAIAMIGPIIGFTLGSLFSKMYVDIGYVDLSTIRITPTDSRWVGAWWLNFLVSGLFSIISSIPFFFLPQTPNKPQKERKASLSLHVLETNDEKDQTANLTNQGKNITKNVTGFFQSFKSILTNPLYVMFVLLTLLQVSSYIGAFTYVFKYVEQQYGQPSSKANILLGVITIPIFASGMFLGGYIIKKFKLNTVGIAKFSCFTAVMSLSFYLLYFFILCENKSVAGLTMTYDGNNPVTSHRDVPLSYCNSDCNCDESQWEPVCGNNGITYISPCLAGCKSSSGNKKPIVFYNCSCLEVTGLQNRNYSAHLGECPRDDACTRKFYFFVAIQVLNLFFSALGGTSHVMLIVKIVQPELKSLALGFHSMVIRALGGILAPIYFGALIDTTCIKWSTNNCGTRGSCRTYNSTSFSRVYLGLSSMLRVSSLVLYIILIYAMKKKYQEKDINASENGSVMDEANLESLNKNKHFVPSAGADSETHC
Format: cell-based
Experimental: (§1) A431 cells overexpressing human OATPs, 1A2 (BC042452, HsCD00333163), 1B1 (Gene ID: AB026257), 1B3 (BC141525, HsCD00348132) or 2B1 (BC041095.1, HsCD00378878), or their mock transfected controls, were generated as previously described. Cells were cultured in Dulbecco’s Modified Eagle Medium (DMEM; Thermo Fischer Scientific, Waltham, MA, USA) supplemented with 10% fetal bovine serum, 2 mM L-glutamine, 100 units/mL penicillin and 100 µg/mL streptomycin, at 37 °C with 5% CO2.
The interaction between flavonoids and OATPs was investigated in an indirect assay employing the fluorescent dye substrates, pyranine and sulforhodamine 101 [51, 52]. Briefly, A431 cell overexpressing OATPs, 1A2, 1B1, 1B3 or 2B1, or their mock transfected controls, were seeded on 96-well plates in a density of 8x10^4 cells/well in 200 μL DMEM one day prior to the transport measurements. […] The reaction was started by the addition of 50 μL uptake buffer containing pyranine in a final concentration of 10 μM (OATP1B1) or 20 μM (OATP1B3 and OATP2B1), or 0.5 μM sulforhodamine 101 (OATP1A2). Thereafter, cells were incubated at 37°C for 15 min (OATP1B1 and OATP2B1), 10 min (OATP1A2), or 30 min (OATP1B3). The reactions were stopped by removing the supernatants, then the cells were washed three times with ice-cold PBS. Fluorescence (in 200 μL PBS/well) was determined employing an Enspire plate reader (Perkin Elmer, Waltham, MA) ex/em: 403/517 nm (pyranine) or 586/605 nm (sulforhodamine 101). OATP-dependent transport was calculated by extracting fluorescence measured in mock transfected cells. Transport activity was calculated based on the fluorescence signal in the absence (100%) of flavonoids. Experiments were repeated at least in three biological replicates. IC50 values were calculated by Hill1 fit, using the Origin Pro8.6 software ([…]).

Compound	IC50 [µM]
COc1cc(-c2oc3cc(O)cc(O)c3c(=O)c2O)ccc1O [IR, isorhamnetin]	3.12

Same assay, conditions: 10 μM pyranine, 15 min

Compound	concentration causing statistically significant (p < 0.01) inhibition, OATP1B1 [nM]
O=c1c(O)c(-c2ccc(O)c(O)c2)oc2cc(O)cc(O)c12 [Q, quercetin]	1300
COc1cc(-c2oc3cc(O)cc(O)c3c(=O)c2O)ccc1O [IR, isorhamnetin]	3100

Now from value to compound:

concentration causing statistically significant (p < 0.01) inhibition, OATP1B1 [nM]	Compound
1600	COc1cc(-c2oc3cc(O)cc(O)c3c(=O)c2OC2OC(C(=O)O)C(O)C(O)C2O)ccc1O (centres unmarked) [I3G, isorhamnetin-3-glucuronide]
300	O=c1c(O)c(-c2ccc(O)c(OS(=O)(=O)O)c2)oc2cc(O)cc(O)c12 [Q3′S, quercetin-3′-sulfate]
1600	O=C(O)C1OC(Oc2c(-c3ccc(O)c(O)c3)oc3cc(O)cc(O)c3c2=O)C(O)C(O)C1O (centres unmarked) [Q3G, quercetin-3-glucuronide]

Same assay, conditions: 10 μM pyranine, 15 min, A431-OATP1B1 cells; read-out: IC50 for OATP1B1

Compound	IC50 [µM]
O=c1c(O)c(-c2ccc(O)c(O)c2)oc2cc(O)cc(O)c12 [Q, quercetin]	1.55
COc1cc(-c2oc3cc(O)cc(O)c3c(=O)c2OC2OC(C(=O)O)C(O)C(O)C2O)ccc1O (centres unmarked) [I3G, isorhamnetin-3-glucuronide]	5.63
O=c1c(O)c(-c2ccc(O)c(OS(=O)(=O)O)c2)oc2cc(O)cc(O)c12 [Q3′S, quercetin-3′-sulfate]	0.33
O=C(O)C1OC(Oc2c(-c3ccc(O)c(O)c3)oc3cc(O)cc(O)c3c2=O)C(O)C(O)C1O (centres unmarked) [Q3G, quercetin-3-glucuronide]	4.05

What follows are compounds tested against T2, OATP1B3 (Homo sapiens, UniProt Q9NPD5) (assay: OATP1B3-mediated pyranine uptake in A431 cells overexpressing OATP1B3). Details: not given.
T2 construct: host or cells: A431
T2 sequence (Q9NPD5 1-702): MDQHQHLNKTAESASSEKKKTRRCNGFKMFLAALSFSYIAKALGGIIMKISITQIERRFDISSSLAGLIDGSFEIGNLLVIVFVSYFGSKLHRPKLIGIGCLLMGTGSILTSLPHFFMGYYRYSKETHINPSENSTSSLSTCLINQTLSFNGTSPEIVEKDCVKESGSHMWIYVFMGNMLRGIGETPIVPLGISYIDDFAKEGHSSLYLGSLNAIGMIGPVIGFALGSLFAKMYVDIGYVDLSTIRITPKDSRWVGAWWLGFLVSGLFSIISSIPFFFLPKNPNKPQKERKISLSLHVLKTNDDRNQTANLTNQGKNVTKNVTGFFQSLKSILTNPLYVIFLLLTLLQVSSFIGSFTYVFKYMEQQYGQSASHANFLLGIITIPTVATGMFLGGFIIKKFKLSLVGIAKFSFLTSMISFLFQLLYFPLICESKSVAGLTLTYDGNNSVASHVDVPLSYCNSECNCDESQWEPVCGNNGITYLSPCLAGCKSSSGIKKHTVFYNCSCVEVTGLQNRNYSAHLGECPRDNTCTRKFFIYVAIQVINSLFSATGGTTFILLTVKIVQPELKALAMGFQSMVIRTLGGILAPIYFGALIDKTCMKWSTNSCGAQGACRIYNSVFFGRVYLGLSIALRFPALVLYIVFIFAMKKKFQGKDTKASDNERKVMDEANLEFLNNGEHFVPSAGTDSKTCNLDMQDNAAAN
Format: cell-based
Experimental: as §1
Briefly, A431 cell overexpressing OATPs, 1A2, 1B1, 1B3 or 2B1, or their mock transfected controls, were seeded on 96-well plates in a density of 8x10^4 cells/well in 200 μL DMEM one day prior to the transport measurements. […] Thereafter, cells were incubated at 37°C for 15 min (OATP1B1 and OATP2B1), 10 min (OATP1A2), or 30 min (OATP1B3). The reactions were stopped by removing the supernatants, then the cells were washed three times with ice-cold PBS. […] OATP-dependent transport was calculated by extracting fluorescence measured in mock transfected cells. Transport activity was calculated based on the fluorescence signal in the absence (100%) of flavonoids. Experiments were repeated at least in three biological replicates. IC50 values were calculated by Hill1 fit, using the Origin Pro8.6 software ([…]).

Compound	IC50 [µM]
COc1cc(-c2oc3cc(O)cc(O)c3c(=O)c2O)ccc1O [IR, isorhamnetin]	3.1

Same assay, conditions: 20 μM pyranine, 30 min

Compound	concentration causing statistically significant (p < 0.01) inhibition, OATP1B3 [nM]
O=c1c(O)c(-c2ccc(O)c(O)c2)oc2cc(O)cc(O)c12 [Q, quercetin]	2500
COc1cc(-c2oc3cc(O)cc(O)c3c(=O)c2O)ccc1O [IR, isorhamnetin]	3100

Further lines, results first:

concentration causing statistically significant (p < 0.01) inhibition, OATP1B3 [nM]	Compound
6300	COc1cc(-c2oc3cc(O)cc(O)c3c(=O)c2OC2OC(C(=O)O)C(O)C(O)C2O)ccc1O (centres unmarked) [I3G, isorhamnetin-3-glucuronide]
1300	O=c1c(O)c(-c2ccc(O)c(OS(=O)(=O)O)c2)oc2cc(O)cc(O)c12 [Q3′S, quercetin-3′-sulfate]
3100	O=C(O)C1OC(Oc2c(-c3ccc(O)c(O)c3)oc3cc(O)cc(O)c3c2=O)C(O)C(O)C1O (centres unmarked) [Q3G, quercetin-3-glucuronide]

Same assay, conditions: 20 μM pyranine, 30 min, A431-OATP1B3 cells; read-out: IC50 for OATP1B3

Compound	IC50 [µM]
O=c1c(O)c(-c2ccc(O)c(O)c2)oc2cc(O)cc(O)c12 [Q, quercetin]	3.22
COc1cc(-c2oc3cc(O)cc(O)c3c(=O)c2OC2OC(C(=O)O)C(O)C(O)C2O)ccc1O (centres unmarked) [I3G, isorhamnetin-3-glucuronide]	9.62
O=c1c(O)c(-c2ccc(O)c(OS(=O)(=O)O)c2)oc2cc(O)cc(O)c12 [Q3′S, quercetin-3′-sulfate]	2.5
O=C(O)C1OC(Oc2c(-c3ccc(O)c(O)c3)oc3cc(O)cc(O)c3c2=O)C(O)C(O)C1O (centres unmarked) [Q3G, quercetin-3-glucuronide]	5.71
